# Test results from patent US20260152799A1, “TUMOUR STRATIFICATION FOR RESPONSIVENESS TO AN IMMUNE CHECKPOINT INHIBITOR” (MEMORIAL SLOAN-KETTERING CANCER CENTER, priority 2022, published 2026).
# Columns and labels:
# PD-L1 [1] = biological target: T1, PD-L1 (Homo sapiens, UniProt Q9NZQ7); settings: xenograft model, T-cell dependent mechanism; cited from earlier work
# PD-L1 [2] = biological target: T1, PD-L1; settings: in vitro; cited from earlier work
# metastatic melanoma [3] = experiment: Riaz et al clinical cohort: response to nivolumab by tumour mtDNA mutation status; format: in vivo, humans
# Protocol: A—Stratification of a metastatic melanoma patient cohort by mtDNA status. […] P-values were determined using one-way ANOVA test with Sidak multiple comparisons test (C,F), one-tailed student's t-test (I) or chi-squared test (H) were applied. Error bars indicate SD. Measure of centrality is mean.
# The inventors then assessed whether this would be associated with clinical outcome.
# Aligned reads for ChrM for patients' tumour and normal samples were acquired and processed according to previously described pipelines which are now publicly available (see e.g. Gorelick et al., Nature Metabolism 2021). Mutation calls and calculated heteroplasmy were used to assign patients to mtDNA wildtype, <50% VAF or >50% VAF groups.
# metastatic melanoma [4] = settings: of the 15 responders; cited from earlier work
# T1 sequence (Q9NZQ7 19-290): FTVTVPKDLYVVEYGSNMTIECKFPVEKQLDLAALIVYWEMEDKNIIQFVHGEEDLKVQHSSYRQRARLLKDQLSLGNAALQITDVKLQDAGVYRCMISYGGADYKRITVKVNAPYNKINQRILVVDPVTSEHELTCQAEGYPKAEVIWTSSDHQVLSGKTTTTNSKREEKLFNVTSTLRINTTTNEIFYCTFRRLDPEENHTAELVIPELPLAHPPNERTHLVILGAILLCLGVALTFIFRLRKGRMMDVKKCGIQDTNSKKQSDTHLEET
Substance,Effect on tumour growth (PD-L1 [1]),Effect on PD-L1-mediated suppression of human T-cell activation (PD-L1 [2]),Tumours responding to nivolumab (metastatic melanoma [3]; <50% VAF tumours),Tumours responding to nivolumab (metastatic melanoma [3]; >50% VAF tumours),Complete responders categorised as >50% VAF (metastatic melanoma [3]; out of the 3 complete responders),Complete responses (metastatic melanoma [4]),Partial responses (metastatic melanoma [4])
MEDI4736: anti-PD-L1 antibody selective for PD-L1 that blocks binding of PD-L1 to PD-1 and CD80,inhibit tumour growth,relieve PD-L1-mediated suppression of human T-cell activation,,,,,
nivolumab,,,17%,40%,2,3,12
